Results from patent US20150079206A1, “TRIGONELLINE AS A MUSCLE STIMULANT” (DSM IP ASSETS B.V., priority 2009, published 2015).

Tested on: Female C57B1/6 mice
Assay: Maximal endurance test (treadmill) in non-trained animals
Format: in vivo, mouse
Method: To test the effect of trigonelline in non-trained animals, we performed a maximal endurance test after a treatment period of three weeks.
Female C57B1/6 mice were delivered at a weight of 18-20 g and acclimatized to the facilities for a period of one week. At the beginning of the study the animals were randomized into two groups (10 animals per group). All mice were housed separately and had access to feed and water ad libidum. Animals were treated for three weeks by gavage with trigonelline-hydrochloride at a daily dosage of 300 mg/kg/BW and the control group received vehicle.
For acclimatization, animals were placed on the treadmill for 5 minutes after two weeks. The maximal endurance test was performed two day before the section of the animals.

C[n+]1cccc(C(=O)[O-])c1 [Trigonelline, trigonelline monohydrate]
skeletal muscle mass in untrained mice (in words) (3 weeks of supplementation): no effect | endurance of untrained animals (in words) (3 weeks of supplementation, monohydrate): not influenced | wet weight of the gastrocnemius muscle, treated vs control (in words) (untrained mice, three weeks of supplementation, FIG. 4): equal in both groups
